Among the data in ChEMBL document CHEMBL5260795, “Antifungal potential of marine natural products” (Eur J Med Chem, 2017) are MIC and IC50 values, retold here.

The structures appear in SMILES notation. Values after ≈ are worked out from the molar mass of the structure shown.

Assay [1] has as its system Candida albicans. The experiment in a line: Antifungal activity against Candida albicans. In kind it is functional, organism-based.
The subject of another assay is Saccharomyces cerevisiae. The experiment in a line: Antimicrobial activity against Saccharomyces cerevisiae incubated for 72 hrs by standard broth dilution method. In kind it is functional. A general note: Dilution methods test growth across graded concentrations, often in twofold steps.
Assay [2] has as its system Candida albicans. The experiment in a line: Antimicrobial activity against Candida albicans incubated for 72 hrs by standard broth dilution method. The assay is classed as functional.
The next assay relates to Colletotrichum acutatum. The experiment in a line: Antimicrobial activity against Colletotrichum acutatum incubated for 72 hrs by standard broth dilution method. In kind it is functional.
A further assay deals with Botrytis cinerea. The experiment in a line: Antimicrobial activity against Botrytis cinerea incubated for 72 hrs by standard broth dilution method. In kind it is functional.
The subject of another assay is Aspergillus niger. The experiment in a line: Antimicrobial activity against Aspergillus niger incubated for 72 hrs by standard broth dilution method. In kind it is functional.
The subject of the next assay is Rhizoctonia solani. The experiment in a line: Antimicrobial activity against Rhizoctonia solani incubated for 72 hrs by standard broth dilution method. In kind it is functional.

As for `CC(C)C[C@H](NC(=O)[C@@H](CCCNC(=N)N)NC(=O)[C@H](NC(=O)[C@H](NC(=O)[C@@H](NC(=O)[C@H](O)[C@H](O)[C@H](CCCNC(=N)N)NC(=O)[C@@H](C)NC(=O)[C@H](C)[C@H](O)[C@H](C)CC(C)C)[C@@H](C)[C@@H](C)C(N)=O)[C@@H](C)O)[C@@H](C)O)C(=O)N(C)[C@@H](CCC(N)=O)C(=O)O`, the lowest concentration to inhibit growth with Candida albicans [1] (MIC) was 0.1 µg/mL (≈ 0.0803 µM).

For the molecule `C[C@@H]1CCCCC/C=C/[C@H](O)C[C@@H](O)C/C=C\C=C\[C@@H](O)C/C=C/C=C\C(=O)O1`, the MIC with Saccharomyces cerevisiae, in the assay with Candida albicans [2], in the assay on Colletotrichum acutatum, against Botrytis cinerea, in the assay on Aspergillus niger and against Rhizoctonia solani was 0.02 µg/mL (≈ 0.0494 µM) in each case.

For `C[C@@H]1CCC/C=C/C=C/[C@H](O)C[C@@H](O)C[C@@H]2O[C@@H]2/C=C/[C@@H](O)C/C=C/C=C\C(=O)O1` [GAGEOMACROLACTIN 1], the MIC with Saccharomyces cerevisiae, in the assay on Candida albicans [2], against Colletotrichum acutatum, with Botrytis cinerea, against Aspergillus niger and against Rhizoctonia solani was 0.02 µg/mL (≈ 0.0478 µM) each time.

Consider `CC(C)C[C@@H](C)[C@@H](O)[C@@H](C)C(=O)N[C@H](C)C(=O)N[C@@H](CCCNC(=N)N)[C@@H](O)[C@@H](O)C(=O)N[C@H](C(=O)N[C@@H](C(=O)N[C@@H](C(=O)N[C@H](CCCNC(=N)N)C(=O)O)[C@@H](C)O)[C@@H](C)O)[C@@H](C)[C@@H](C)C(N)=O`, for which the MIC – broadly, the least concentration at which growth counts as inhibited – in the assay with Candida albicans [1] is 0.1 µg/mL (≈ 0.101 µM).

In the case of `C/C=C(\NC(=O)[C@@H](NC(=O)[C@H](O)[C@H](O)[C@H](CCCNC(=N)N)NC(=O)[C@@H](C)NC(=O)[C@H](C)[C@H](O)[C@H](C)CC(C)C)[C@@H](C)[C@@H](C)C(N)=O)C(=O)N[C@@H](C(=O)N[C@H](CCCNC(=N)N)C(=O)O)[C@@H](C)O`, the MIC in the assay on Candida albicans [1] is 0.1 µg/mL (≈ 0.103 µM).

With `C/C=C(\NC(=O)[C@@H](NC(=O)[C@H](O)[C@H](O)[C@H](CCCNC(=N)N)NC(=O)[C@@H](C)NC(=O)[C@H](C)[C@H](O)[C@H](C)CC(C)C)[C@@H](C)[C@@H](C)C(N)=O)C(=O)N[C@@H](C(=O)N[C@H](CCCNC(=N)N)C(=O)N[C@@H](CC(C)C)C(=O)N(C)[C@@H](CCC(N)=O)C(=O)N[C@@H](C(=O)N(C)[C@@H](C)C(=O)O)[C@H](OC)c1ccc(O)cc1)[C@@H](C)O`, in the assay on Candida albicans [1], the MIC stood at 0.1 µg/mL (≈ 0.0664 µM).

`C=C(CC[C@@H](C)[C@H]1CC[C@H]2C3=C(CC[C@]12C)[C@@]1(C)CC[C@H](O)C[C@@H]1C(=O)O3)C(C)C` registered an MIC with Candida albicans [1] of 0.79 µg/mL (≈ 1.91 µM).

Take `C[C@@H]1NC(=O)[C@@H](Cc2ccccc2)NC(=O)[C@@H](CO)NC(=O)c2ccccc2NC(=O)/C(=C\c2c[nH]c3ccccc23)NC(=O)[C@H]([C@@H](C)O)NC1=O`: the MIC against Candida albicans [1] was found to be 2.48 µg/mL (≈ 3.49 µM).

In the case of `CC(C)[C@@H](C)[C@@H]1O[C@@H]1[C@@H](C)[C@H]1[C@@H](O)C[C@]2(O)C3=CC=C4C[C@@H](O)CC[C@]4(C)C3[C@H](O)C(=O)[C@]12C` (stereo partly specified), in the assay on Candida albicans [1], the MIC was found to be 1.56 µg/mL (≈ 3.29 µM).

In the case of `C[C@@H]1CCC/C=C/C=C/[C@H](O)C[C@@H](O)C/C=C\C=C\[C@@H](O[C@@H]2O[C@@H](CO)[C@H](O)[C@@H](O)[C@@H]2O)C/C=C/C=C\C(=O)O1`, the minimum inhibitory concentration (MIC) in the assay on Saccharomyces cerevisiae, in the assay with Candida albicans [2], with Colletotrichum acutatum, against Botrytis cinerea, against Aspergillus niger and with Rhizoctonia solani was 0.02 µg/mL (≈ 0.0354 µM) each time.

With `CCC/C=C\c1ccccc1/C=C/C(=O)N[C@H]1C(=O)N(C)/C(=C/c2ccc(O)cc2)C(=O)N[C@@H](CC(C)C)C(=O)N[C@H](Cc2ccccc2)C(=O)N[C@@H]([C@H](C)O)C(=O)N[C@@H](CC(N)=O)C(=O)N[C@@H](CO)C(=O)O[C@H](C)[C@@H](NC(=O)C/C=C2/C=CNC[C@H]2/C=C\CCC)C(=O)N(C)/C(=C/c2ccc(O)cc2)C(=O)N[C@@H](CC(C)C)C(=O)N[C@H](Cc2ccccc2)C(=O)N[C@@H]([C@H](C)O)C(=O)N[C@@H](CC(N)=O)C(=O)N[C@@H](CO)C(=O)O[C@@H]1C`, the IC50 (commonly the concentration that inhibits the measured activity by half) in the assay on Candida albicans [1] was found to be 4.14 µg/mL (≈ 1.99 µM).
